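A five-concentration, 48-hour dose response in 96-well plates underlies each endpoint, interpolated linearly between surrounding concentrations. Abbreviation: GI50, concentration required for 50% inhibition of growth. TGI is the concentration that stops growth completely.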
Key:
Test in all cases: NCI anticancer screen, dose series, 48 h
COLO 205 colon = tested on: COLO 205 colon
HCT-116 colon = tested on: HCT-116 colon
HS 578T breast = tested on: HS 578T breast
IGROV1 ovarian = tested on: IGROV1 ovarian
MDA-MB-231 breast = tested on: MDA-MB-231 breast
MOLT-4 leukemia = tested on: MOLT-4 leukemia
NCI-H23 lung = tested on: NCI-H23 lung
OVCAR-4 ovarian = tested on: OVCAR-4 ovarian
SR leukemia = tested on: SR leukemia
TK-10 renal = tested on: TK-10 renal

SMILES	GI50 (COLO 205 colon) [µM]	TGI (COLO 205 colon) [µM]	GI50 (HCT-116 colon) [µM]	TGI (HCT-116 colon) [µM]	GI50 (HS 578T breast) [µM]	TGI (HS 578T breast) [µM]	GI50 (IGROV1 ovarian) [µM]	TGI (IGROV1 ovarian) [µM]	GI50 (MDA-MB-231 breast) [µM]	TGI (MDA-MB-231 breast) [µM]	GI50 (MOLT-4 leukemia) [µM]	TGI (MOLT-4 leukemia) [µM]	GI50 (NCI-H23 lung) [µM]	TGI (NCI-H23 lung) [µM]	GI50 (OVCAR-4 ovarian) [µM]	TGI (OVCAR-4 ovarian) [µM]	GI50 (SR leukemia) [µM]	TGI (SR leukemia) [µM]	GI50 (TK-10 renal) [µM]	TGI (TK-10 renal) [µM]
O=C1/C(=C/c2ccccc2[N+](=O)[O-])COc2ccc(O)cc21	1.14	2.89	0.352	1.57	2.39	41.6	0.529	2.08	1.77	3.69	2.27	8.23	1.59	4.41	1.9	8.63	0.366	> 100	3.44	13.9
COc1ccc(COc2cc3oc(=O)c4cc(C(C)O)ccc4c3cc2OC)cc1 (stereo not given)	> 22.7	> 100	13.3	> 100	8.79	> 67.4	11.5	> 83.1	9.6	97.5	> 23	> 100	16.6	> 86.6	10.1	66.2	49.7	> 100	17.4	62.6
CN(C)c1nc(N)c(C#N)c(C#N)c1C#N		> 10		> 10		> 10		> 10		> 10		> 10		> 10		> 10		> 10		> 10
Nc1nc(-c2ccc(Cl)cc2)nc2c1sc(=S)n2-c1ccccc1	7.44	> 100	2.94	10.9	3.31	9.39	3.3	17	3.44	10.6	> 100	> 100	4.05	18.2	1.95	4.57	5.82	> 100	2.22	5.9
O=C1/C(=C/c2ccccc2O)N=C(c2ccccc2)N1c1cc(C(F)(F)F)ccc1Cl	> 100	> 100	25	> 100	22.8	60.3	14.3	64.3	20.7	71.2	> 100	> 100	80.1	> 100	> 100	> 100	5.51	> 100	18.9	43.7
Clc1nc(Cl)c2ncn(CCOCCn3cnc4c(Cl)nc(Cl)nc43)c2n1	0.204	0.374	0.182	0.346	0.289	0.693	0.207	0.408	0.187	0.355	0.336	> 100	0.204	0.401	0.283	0.707	0.241	54.4	0.772	1.71
COCCOCCOCCOCCOC(=O)OC[n+]1ccc(NC(=NCCCCCCOc2ccc(Cl)cc2)NC#N)cc1	0.231	15.5	< 0.01	11.8	1.11	43.6	0.465	24.7	5.19	23.7	1.95	19.5	4.23	23.1	6.47	19.9	0.0905	> 45.6	13.2	26.4
Nc1nc(C(=O)O)c(N=Nc2ccccc2)c(=O)[nH]1		> 100		> 100		> 100		> 100		> 100		> 100		> 100		> 100		> 100		> 100
CCn1ccnc1C(=O)/C=C/c1ccc(CC(=O)Nc2ccc(F)cc2)cc1	4.29	13.1	1.84	4.4	5.36	> 16.7	4.63	> 16.7	4.36	> 16.7	5.28	14.5	4.25	> 16.7	3.31	> 16.7	0.529	11.1	6.01	> 16.7
NCc1ccc(-c2nc(-c3ccc(Cl)c(O)c3)c(-c3ccncc3)[nH]2)cc1	> 25	> 25	15.9	> 25	11.9	> 25	> 25	> 25	11.7	> 25	> 25	> 25	13.5	> 25	> 25	> 25	> 25	> 25	> 25	> 25
[Cl][Cu][Cl]	> 10	> 10	> 10	> 10	> 10	> 10	> 10	> 10	> 10	> 10	> 10	> 10	> 10	> 10	> 10	> 10	> 10	> 10	> 10	> 10
Fc1ccc2nc(-c3nc(-c4ccccc4)n4ccccc34)[nH]c2c1	3.42	13.1	2	3.82	3.56	25	1.95	5.3	2.45	10.7	3.6	> 100	3.54	17	1.93	6.31	4.45	> 100	3.25	6.72
N#Cc1cc2c(cc1Cl)Sc1nnc(Nc3cccc4ccccc34)n1S2(=O)=O	2.34	4.52	3.98	14.2	2.89	9.74	7.38	21.2	2.49	6.96	3.84	> 100	1.8	3.43	6.48	26.8	2.21	7.82	1.91	5.07

From PubChem BioAssay (NCI)
